Assay results published in US20120213764A1, “NOVEL METHOD FOR THE PRODUCTION OF A ANTIMICROBIAL PEPTIDE” (B.R.A.I.N. BIOTECHNOLOGY RESEARCH AND INFORMATION NETWORK AG, priority 2009, published 2012).

How the values were obtained:
[1] = system: Escherichia coli and Staphylococcus aureus; test: Antimicrobial activity assay-1, colony-forming units (CFU) assay; assay type: cell-based; details: for reduction of bacteria (colony-forming units): 50-100 μg/ml peptide, 37° C. for 2-4 hours, 10 mM sodium phosphate buffer/10 mM NaCl pH 7.0
Method: Antimicrobial assays were performed using the colony-forming units (CFU) assay as previously described. The antibacterial activity of DCD-derived peptides was tested against the following bacterial strains: Escherichia coli and Staphylococcus aureus. Bacterial cultures were grown to mid-exponential growth phase and washed three times with 10 mM sodium phosphate buffer/10 mM NaCl (pH 7.0). Bacterial concentration was estimated photometrically at 600 nm. Absorbance of 1.0 corresponded to 8.56×10^8/ml for E. coli, 1.97×10^8/ml for S. aureus.
After dilution to a concentration of 10^6 CFU/ml, 10 μl of the dilutions were incubated at 37° C. for 2-4 hours with the respective peptide diluted in water in a total volume of 30 μl in 10 mM sodium phosphate buffer containing 10 mM NaCl (pH 7.0). After incubation, cells were diluted 1:100 in 10 mM sodium phosphate buffer containing 10 mM NaCl (pH 7.0) and 90 μl of the diluted bacterial suspension were plated in triplicates on blood agar. Bacterial colonies were counted after incubation for 18-24 hours at 37° C. The antimicrobial activity was calculated using [(cell survival after peptide incubation)/(cell survival in buffer without peptide)×100]. The LC90 describes the lethal concentration of the current peptide in μg/ml or M which leads to 90% reduction of colony-forming units compared to the buffer control. The assay was carried out with 50-100 μg/ml DCD1L and DCD1.

[2] = system: Escherichia coli, Staphylococcus aureus, and Micrococcus luteus; test: Antimicrobial activity assay-2, zone of inhibition on LB agar; assay type: cell-based; details: peptide in 40% ACN/0.06% FA spotted in 10 μl on LB agar, 37° C. over night; FIG. 4 against S. aureus
Method: DCD1 was dissolved in 0.06% FA (2-5) or 40% ACN/0.06% FA (7-10). 1. 0.06% FA; 2. 5 μg DCD1; 3. 10 μg DCD1; 4. 30 μg DCD1; 5. 60 μg DCD1; 6.40% ACN/0.06% FA; 7. 5 μg DCD1; 8. 10 μg DCD1; 9. 30 μg DCD1; 10. 60 μg DCD1.
(§1) The antimicrobial activity of DCD1 and DCD1L peptides were tested against the following bacterial strains: Escherichia coli, Staphylococcus aureus, and Micrococcus luteus, isolated from skin. Bacterial cultures were grown to mid-exponential growth phase and bacterial concentration was estimated photometrically at 578 nm. Absorbance of 1.0 corresponded to 8.56×10^8/ml for E. coli, 1.97×10^8/ml for S. aureus. After dilution to a concentration of OD578nm 0.01 (˜10^6 CFU/ml), 100 μl of the cells were plated on LB agar. Afterwards different concentrations of the peptide dissolved in 40% ACN/0.06% FA were spotted on the plates in a total volume of 10 μl. As control 10 μl of 40% ACN/0.06% FA was used. The plates were incubated at 37° C. over night. After incubation the zone of inhibition was determined and the antimicrobial activity was calculated in dependence on the peptide concentration.

[3] = system: S. aureus; test: Antimicrobial activity assay-2 with in vivo produced DCD1; assay type: cell-based; details: ~28 μg spotted, in 40% ACN/0.06% FA, S. aureus OD578nm 0.01 on LB agar
Method: DCD1 was dissolved in 40% ACN/0.06% FA. 1. 24 μg recombinantly produced DCD1 2. 24 μg in vivo produced DCD1; 3. 10 μl 40% ACN/0.06% FA;
as §1
To determine the antimicrobial activity, the in vivo produced DCD1 was lyophilized and dissolved in 40% ACN/0.06% FA. For testing its activity ˜28 μg DCD1 was spotted in LB agar plates containing 100 μl S. aureus (OD578nm 0.01) (see chapter Antimicrobial activity assay—2). As control 40% ACN/0.06% FA was spotted.

[4] = system: E. coli, methicillin-resistant Staphylococcus aureus, Staphylococcus epidermidis and Candida albicans; details: cited from earlier work
[5] = parameters: species or system human; details: in vivo
Method: Line 1-3: DCD1L dissolved in 300 mM NaCl, 10 mM NaH2PO4, pH 4.0 and incubated on skin for 0, 2 and 4 hours; Line 4-6: DCD1L dissolved in 300 mM NaCl, 10 mM NaH2PO4, pH 6.5 and incubated on skin for 0, 2 and 4 hours; […] and incubated on skin for 0, 2 and 4 hours. As controls are the recombinantly produced DCD1 and DCD1L peptides.
(A) 2 h, (B) 4 h, (C) 19 h. A total ion count chromatogram […] is shown in black and two single ion chromatograms for m/z 785 and m/z 805 corresponding to DCD1 and DCD1L respectively are shown.
For testing in vivo processing, the DCD1L peptide was dissolved in buffers (300 mM NaCl, 10 mM NaH2PO4) varying in pH (4, 6.5, and 9) and incubated on forearm. Therefore a construction composed of cardboard containing five ceramic rings was created. This construction was fixed on forearm with tape and ceramic rings were filled with 100 μl (˜140 μg) DCD1L. Finally an elastic foil was used to surround the whole construction. The incubation on skin varied from one to four hours before removing the samples from skin. Afterwards the peptide samples were analyzed by SDS PAGE (FIG. 5) and HPLC-MS (FIGS. 6 A and B) and also further incubated at room temperature in vitro (FIG. 6 C). […] This kind of processing was also analyzed by SDS PAGE and HPLC-MS.

Substance | reduction of bacteria (colony-forming units) [1] | antimicrobial activity (zone of inhibition) [2] | antimicrobial activity (inhibition zone) of DCD1 produced from DCD1L on skin [3] | antimicrobial activity against several microorganisms [4] | antimicrobial activity (inventors' finding, summary statement) ([1]; no conditions given at the place) | conversion of DCD1L into DCD1 ([5]; pH 4) | incubation time after which processing of DCD1L to DCD1 was complete ([5]; pH 9)
DCD1: 47 aa peptide, amino acids 63 to 109 of dermcidin, recombinantly produced or formed from DCD1L on skin (SSLLEKGLDGAKKAVGGLGKLGKDAVEDLESVGKGAVHDVKDVLDSV; homo sapiens) | led to a reduction of diverse bacteria | activity emanating from DCD1 was detectable | is antimicrobial active | have antimicrobial activity | – | – | –
DCD1L: 48 aa peptide, amino acids 63 to 110 of dermcidin, recombinantly produced (SSLLEKGLDGAKKAVGGLGKLGKDAVEDLESVGKGAVHDVKDVLDSVL; homo sapiens) | only the addition of DCD1 led to a reduction of diverse bacteria | only activity emanating from DCD1 was detectable | – | have antimicrobial activity | does not have antimicrobial activity | always converted into DCD1 in a pH- and time-dependent manner | 16 h
SEQ ID NO: 4: peptide of amino acids 63 to 87 of dermcidin (SSLLEKGLDGAKKAVGGLGKLGKDA; homo sapiens) | – | – | – | have antimicrobial activity | – | – | –
SEQ ID NO: 5: peptide of amino acids 63 to 85 of dermcidin (SSLLEKGLDGAKKAVGGLGKLGK; homo sapiens) | – | – | – | have antimicrobial activity | – | – | –
